Laboratory results taken from patent US10195179B2, “Spiro-lactam NMDA receptor modulators and uses thereof” (Aptinyx Inc., priority 2016, dated 2019).
Read-outs that look alike come from different tables or passages of the source.

Tests used:
[1] = Microsomal stability, human; format: in vitro ADME; conditions: human microsomes
Description: (§1) Microsomal stability for Compound AA and Compound BB was investigated. The following table indicates the percent of Compound AA and Compound BB remaining after 60 minutes.

[2] = Microsomal stability, rat; format: in vitro ADME; conditions: rat microsomes
Description: as §1

[3] = Plasma stability, human; format: in vitro ADME
Description: (§2) Plasma stability for Compound AA and Compound BB was investigated. The following table indicates the percent of Compound AA and Compound BB remaining after 60 minutes.

[4] = Plasma stability, rat; format: in vitro ADME
Description: as §2

[5] = Plasma protein binding assay, rat; format: in vitro ADME; conditions: read-out: Plasma Protein binding (% Bound) Plasma rat (converted)
Description: Bound drug concentration in the brain was also investigated, and plasma protein binding assays were conducted. The following table (% bound) indicates results for Compound AA and Compound BB.

[6] = Bioavailability and CSF/brain/plasma exposure after PO administration; format: in vivo, Sprague Dawley rats; conditions: rat, plasma; PO administration (10 mg/kg PO, 2 mg/kg IV), male Sprague Dawley rats; read-out: Bioavailablity (% F)
Description: The bioavailablity of Compound BB was investigated following PO administration. CSF, brain and plasma samples were analyzed following dosing with compound BB (10 mg/kg). The following table indicates the bioavailablity and CSF/plasma and brain/plasma ratios.
Sprague Dawley rats were dosed intravenously with 2 mg/kg of Compound AA. A second group of Sprague Dawley rats was dosed per os with 10 mg/kg of compound AA. Plasma samples were drawn over a 24 h period and analyzed for Compound AA. FIG. 3A presents the mean plasma concentration-time profile of Compound AA following the single intraveneous (2 mg/kg) and oral (10 mg/kg) dose administration in male Sprague Dawley rats over the 24 hour period.
In another experiment. Sprague Dawley rats were dosed intravenously with 2 mg/kg of Compound BB. A second group of Sprague Dawley rats was dosed per os with 10 mg/kg of compound BB. Plasma samples were drawn over a 24 h period and analyzed for Compound BB. FIG. 3B presents the mean plasma concentration-time profile of Compound BB following the single intraveneous (2 mg/kg) and oral (10 mg/kg) dose administration in male Sprague Dawley rats over the 24 hour period.
In another experiment, Sprague Dawley rats were dosed per os with 10 mg/kg of Compound BB. Plasma, brain, and CSF samples were analyzed at various time points over a 24 hour period.

[7] = target: NR2A (Homo sapiens, UniProt Q12879); experiment: Potentiation of [3H]MK-801 binding, wild-type NMDAR2A; set-up: species or system rat; conditions: for NMDAR2A BINDING PROFILE % 1 mM Glycine: relative to 1 mM glycine
Sequence of NR2A (Q12879 23-1464, species assumed, other chains not shown): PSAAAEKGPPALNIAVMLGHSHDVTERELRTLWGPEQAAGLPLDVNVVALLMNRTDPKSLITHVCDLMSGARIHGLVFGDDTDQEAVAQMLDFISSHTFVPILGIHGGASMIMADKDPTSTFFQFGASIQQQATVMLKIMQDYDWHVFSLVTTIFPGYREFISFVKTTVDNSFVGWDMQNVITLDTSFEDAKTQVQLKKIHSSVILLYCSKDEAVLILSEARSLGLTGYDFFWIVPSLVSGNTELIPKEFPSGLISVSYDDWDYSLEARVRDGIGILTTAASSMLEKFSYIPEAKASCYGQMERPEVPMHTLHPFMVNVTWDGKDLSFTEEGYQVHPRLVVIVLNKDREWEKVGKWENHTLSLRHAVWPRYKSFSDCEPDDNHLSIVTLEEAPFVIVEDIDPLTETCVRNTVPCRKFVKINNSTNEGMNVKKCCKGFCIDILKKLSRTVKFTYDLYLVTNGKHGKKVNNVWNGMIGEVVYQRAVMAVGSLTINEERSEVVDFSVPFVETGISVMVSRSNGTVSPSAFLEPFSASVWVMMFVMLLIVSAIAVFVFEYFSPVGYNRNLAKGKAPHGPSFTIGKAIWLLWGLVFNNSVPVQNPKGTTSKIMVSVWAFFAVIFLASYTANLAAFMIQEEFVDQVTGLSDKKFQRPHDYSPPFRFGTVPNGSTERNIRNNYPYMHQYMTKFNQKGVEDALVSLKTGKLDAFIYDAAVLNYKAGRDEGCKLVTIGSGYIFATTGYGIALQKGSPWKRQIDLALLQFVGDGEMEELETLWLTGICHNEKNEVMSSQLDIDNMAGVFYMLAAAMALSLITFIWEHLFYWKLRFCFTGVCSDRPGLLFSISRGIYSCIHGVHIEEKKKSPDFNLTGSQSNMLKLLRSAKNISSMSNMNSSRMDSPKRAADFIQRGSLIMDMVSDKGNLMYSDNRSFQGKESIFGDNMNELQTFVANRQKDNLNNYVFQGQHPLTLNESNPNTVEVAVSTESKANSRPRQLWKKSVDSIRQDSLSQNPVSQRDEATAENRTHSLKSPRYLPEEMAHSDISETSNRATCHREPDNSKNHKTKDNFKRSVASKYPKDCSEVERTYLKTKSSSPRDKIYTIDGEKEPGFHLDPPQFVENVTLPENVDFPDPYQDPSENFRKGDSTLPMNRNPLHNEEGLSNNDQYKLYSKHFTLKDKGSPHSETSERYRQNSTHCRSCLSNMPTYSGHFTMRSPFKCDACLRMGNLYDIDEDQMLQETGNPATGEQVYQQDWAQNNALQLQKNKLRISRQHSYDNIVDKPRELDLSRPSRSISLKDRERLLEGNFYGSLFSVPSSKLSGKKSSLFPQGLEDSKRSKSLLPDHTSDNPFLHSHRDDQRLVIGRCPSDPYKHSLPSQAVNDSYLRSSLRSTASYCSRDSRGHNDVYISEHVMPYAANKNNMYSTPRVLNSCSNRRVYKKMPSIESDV

[8] = target: NR2B (Homo sapiens, UniProt Q13224); experiment: Potentiation of [3H]MK-801 binding, wild-type NMDAR2B; set-up: species or system rat; conditions: for NMDAR2B BINDING PROFILE % 1 mM Glycine: relative to 1 mM glycine; for NMDAR2B BINDING PROFILE Conclusion / EC50: wild-type NMDAR2B; for EC50: 0 = no activity, read-out: NMDAR2B BINDING PROFILE −logEC50 (converted)
Sequence of NR2B (Q13224 27-1484, species assumed, other chains not shown): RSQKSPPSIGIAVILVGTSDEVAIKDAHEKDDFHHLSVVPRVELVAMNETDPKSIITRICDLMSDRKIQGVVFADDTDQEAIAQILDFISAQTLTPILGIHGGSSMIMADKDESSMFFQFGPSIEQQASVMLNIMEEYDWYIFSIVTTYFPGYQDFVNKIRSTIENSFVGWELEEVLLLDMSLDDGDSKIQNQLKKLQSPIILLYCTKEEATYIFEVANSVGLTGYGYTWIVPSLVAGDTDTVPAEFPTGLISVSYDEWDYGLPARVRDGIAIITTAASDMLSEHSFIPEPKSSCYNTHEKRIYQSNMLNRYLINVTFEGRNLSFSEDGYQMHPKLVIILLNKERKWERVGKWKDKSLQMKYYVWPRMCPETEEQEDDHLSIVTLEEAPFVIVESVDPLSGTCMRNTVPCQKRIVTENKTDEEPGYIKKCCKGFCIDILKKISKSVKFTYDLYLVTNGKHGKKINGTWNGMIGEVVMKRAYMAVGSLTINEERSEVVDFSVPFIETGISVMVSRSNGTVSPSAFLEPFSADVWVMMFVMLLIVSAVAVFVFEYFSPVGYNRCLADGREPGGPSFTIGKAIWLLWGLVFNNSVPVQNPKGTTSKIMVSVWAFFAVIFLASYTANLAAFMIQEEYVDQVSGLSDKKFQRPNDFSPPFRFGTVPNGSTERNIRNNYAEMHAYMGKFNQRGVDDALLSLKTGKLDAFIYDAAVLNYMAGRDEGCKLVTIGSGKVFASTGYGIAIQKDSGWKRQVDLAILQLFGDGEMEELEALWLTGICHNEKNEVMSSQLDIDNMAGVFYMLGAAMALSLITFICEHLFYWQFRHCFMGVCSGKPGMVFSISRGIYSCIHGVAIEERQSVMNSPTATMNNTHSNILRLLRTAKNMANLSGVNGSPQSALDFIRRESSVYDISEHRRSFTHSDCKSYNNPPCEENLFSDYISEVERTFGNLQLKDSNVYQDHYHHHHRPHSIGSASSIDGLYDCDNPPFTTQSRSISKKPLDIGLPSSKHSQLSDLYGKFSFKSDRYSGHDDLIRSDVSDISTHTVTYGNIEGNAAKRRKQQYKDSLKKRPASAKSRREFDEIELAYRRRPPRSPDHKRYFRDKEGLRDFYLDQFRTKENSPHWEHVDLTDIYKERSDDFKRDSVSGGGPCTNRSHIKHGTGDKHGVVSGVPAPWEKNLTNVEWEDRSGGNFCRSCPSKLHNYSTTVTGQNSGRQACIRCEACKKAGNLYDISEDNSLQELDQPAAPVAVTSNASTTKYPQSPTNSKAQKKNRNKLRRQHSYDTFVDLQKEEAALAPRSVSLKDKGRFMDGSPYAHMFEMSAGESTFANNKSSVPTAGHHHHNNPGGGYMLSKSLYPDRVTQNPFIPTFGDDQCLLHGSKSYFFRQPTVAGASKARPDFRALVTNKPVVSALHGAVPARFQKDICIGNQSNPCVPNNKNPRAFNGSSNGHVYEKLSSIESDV
Description: (§3) Assays were conducted as described by Moskal et al., “GLYX-13: a monoclonal antibody-derived peptide that acts as an N-methyl-D-aspartate receptor modulator,” Neuropharmacology, 49, 1077-87, 2005. The potentiation of [^3H]MK-801 binding (5 nM; 22.5 Ci/mmol) to well washed rat cortical membranes (200 μg) was measured under non-equilibrium conditions (15 min @ 25° C.) in the presence of increasing concentrations of Compound AA or Compound BB.
(§4) FIG. 2A depicts the potentiation of [^3H]MK-801 binding for wild-type NMDAR2 subtypes in the presence of Compound AA. FIG. 2B depicts the potentiation of [^3H]MK-801 binding for wild-type NMDAR2 subtypes in the presence of Compound BB. The following table depicts the results (P means potency and A means activity): […]

[9] = target: NR2C (Homo sapiens, UniProt Q14957); experiment: Potentiation of [3H]MK-801 binding, wild-type NMDAR2C; set-up: species or system rat; conditions: for NMDAR2C BINDING PROFILE % 1 mM Glycine: relative to 1 mM glycine
Sequence of NR2C (Q14957 20-1233, species assumed, other chains not shown): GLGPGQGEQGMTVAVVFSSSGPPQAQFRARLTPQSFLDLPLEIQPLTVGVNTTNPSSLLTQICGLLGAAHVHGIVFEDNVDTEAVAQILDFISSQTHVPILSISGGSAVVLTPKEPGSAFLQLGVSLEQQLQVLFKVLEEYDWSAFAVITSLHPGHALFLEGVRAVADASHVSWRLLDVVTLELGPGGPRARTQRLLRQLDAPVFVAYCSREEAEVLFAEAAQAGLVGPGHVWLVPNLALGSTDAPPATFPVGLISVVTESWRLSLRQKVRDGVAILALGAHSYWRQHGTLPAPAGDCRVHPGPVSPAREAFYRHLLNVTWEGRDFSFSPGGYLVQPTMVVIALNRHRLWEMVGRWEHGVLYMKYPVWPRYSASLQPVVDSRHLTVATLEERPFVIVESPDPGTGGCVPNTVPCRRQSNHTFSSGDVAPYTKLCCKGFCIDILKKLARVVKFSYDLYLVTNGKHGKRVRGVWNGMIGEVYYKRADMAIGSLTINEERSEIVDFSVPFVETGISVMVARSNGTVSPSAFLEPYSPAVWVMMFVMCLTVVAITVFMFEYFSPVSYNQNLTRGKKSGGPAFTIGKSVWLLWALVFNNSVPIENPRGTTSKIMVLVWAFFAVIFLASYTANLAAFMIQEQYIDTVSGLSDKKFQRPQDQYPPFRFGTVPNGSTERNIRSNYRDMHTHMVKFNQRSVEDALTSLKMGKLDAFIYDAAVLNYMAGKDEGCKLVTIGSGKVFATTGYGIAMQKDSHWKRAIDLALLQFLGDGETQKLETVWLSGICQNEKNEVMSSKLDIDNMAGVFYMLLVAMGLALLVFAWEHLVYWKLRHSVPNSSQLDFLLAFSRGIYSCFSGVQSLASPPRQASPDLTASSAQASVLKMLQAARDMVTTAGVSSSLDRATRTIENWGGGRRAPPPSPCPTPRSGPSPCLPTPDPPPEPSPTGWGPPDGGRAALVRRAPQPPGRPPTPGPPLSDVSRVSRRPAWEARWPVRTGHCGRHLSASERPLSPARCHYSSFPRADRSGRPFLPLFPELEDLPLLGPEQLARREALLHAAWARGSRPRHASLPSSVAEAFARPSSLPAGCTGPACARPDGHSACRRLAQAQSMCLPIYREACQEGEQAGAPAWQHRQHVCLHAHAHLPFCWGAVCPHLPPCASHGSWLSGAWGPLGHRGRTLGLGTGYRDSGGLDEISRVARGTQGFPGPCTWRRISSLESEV
Description: as §3, §4

[10] = target: NR2D (Homo sapiens, UniProt O15399); experiment: Potentiation of [3H]MK-801 binding, wild-type NMDAR2D; set-up: species or system rat; conditions: for NMDAR2D BINDING PROFILE % 1 mM Glycine: relative to 1 mM glycine
Description: as §3, §4

[11] = system: Sprague Dawley rats; experiment: Porsolt forced swim test; format: in vivo, rat; conditions: 1 mg/kg PO
Description: A non-clinical in vivo pharmacology study (Porsolt assay) was performed to measure antidepressant-like effects. A negative control (0.5% sodium carboxymethyl cellulose in 0.9% sterile saline vehicle) and a positive control (Compound C) were used to compare against Compound BB. The study allowed for the construction of a dose-response curve of the effects of each compound on the Porsolt forced swim test as assessed by the rats' response (reduced floating time) during a 5-minute swimming test.
Male 2-3 month old Sprague Dawley rats were used (Harlan, Indianapolis, Ind.). Rats were housed in Lucite cages with aspen wood chip bedding, maintained on a 12:12 light:dark cycle (lights on at 5 AM), and given ad libitum access to Purina lab chow (USA) and tap water throughout the study.
The Porsolt forced swim test adapted for use in rats was performed as described by Burgdorf et al., (The long-lasting antidepressant effects of rapastinel (GLYX-13) are associated with a metaplasticity process in the medial prefrontal cortex and hippocampus. Neuroscience 308:202-211, 2015). Animals were placed in a 46 cm tall×20 cm in diameter clear glass tube filled to 30 cm with tap water (23±1° C.) for 15 min on the first day (habituation) and 5 min on the subsequent test day. Animals were tested 1 h post-dosing with the compound BB, positive control (Compound C, 10 μg/kg), or vehicle (0.5% sodium carboxymethyl cellulose (Na-CMC) in 0.9% sterile saline). Water was changed after every other animal. Animals were videotaped, and floating time as defined as the minimal amount of effort required to keep the animals head above water was scored offline by a blinded experimenter with high inter-rater reliability (Pearson's r >0.9).
The maximally efficacious dose was defined as the lowest dose that was statistically different from vehicle but statistically equivalent (per Fisher's PLSD) to the higher doses. […]
Compound AA was assessed in a second set of animals at a single dose at 1 h post-administration and in a third set of animals at 24 h post-administration (FIG. 9B). […]

[12] = potentiation of [3H]MK-801 binding
[13] = wild-type NMDAR2D, read-out: NMDAR2D BINDING PROFILE −logEC50 (converted)
[14] = wild-type NMDAR2A, 0 = no activity, read-out: NMDAR2A BINDING PROFILE −logEC50 (converted)
[15] = wild-type NMDAR2C, 0 = no activity, read-out: NMDAR2C BINDING PROFILE −logEC50 (converted)

SMILES | NMDAR2A BINDING PROFILE % 1 mM Glycine [7] | NMDAR2A BINDING PROFILE Conclusion ([7]; wild-type NMDAR2A) | NMDAR2B BINDING PROFILE % 1 mM Glycine [8] | NMDAR2B BINDING PROFILE Conclusion [8] | NMDAR2C BINDING PROFILE % 1 mM Glycine [9] | NMDAR2C BINDING PROFILE Conclusion ([9]; wild-type NMDAR2C) | NMDAR2D BINDING PROFILE % 1 mM Glycine [10] | NMDAR2D BINDING PROFILE Conclusion ([10]; wild-type NMDAR2D) | EC50 [10, 13] | EC50 [7, 14] | EC50 [8] | EC50 [9, 15] | further results
C[C@@H](O)[C@@H](C(N)=O)N1C[C@]2(CCCN2S(C)(=O)=O)C1=O [Compound AA, (2S,3R)-3-hydroxy-2-((R)-5-(methylsulfonyl)-1-oxo-2,5-diazaspiro[3,4]octan-2-yl)butanamide] | 38.8% | WT2A agonist | 0% | WT2B no | 67% | WT2C agonist | 52% | WT2D agonist | 1.58e-11 M | – | – | – | Microsomal Stability (% remaining at 60 min) Human [1]: 100%; Microsomal Stability (% remaining at 60 min) Rat [2]: 100%; Plasma Stability (% remaining at 60 min) Human [3]: 91%; Plasma Stability (% remaining at 60 min) Rat [4]: 59%; fraction unbound [5]: 0.82; bioavailability [6]: 29%; NR2A A (%) (activity) [7, 12]: 38.8%; EC50 ([7]; potentiation of [3H]MK-801 binding, 0 = no activity, read-out: NR2A P (M) (potency)): 1e-10 M; NMDAR2A BINDING PROFILE −logEC50 ([7]; wild-type NMDAR2A, 0 = no activity): 10; NR2B A (%) (activity) [8, 12]: 0%; NR2C A (%) (activity) [9, 12]: 67.0%; EC50 ([9]; potentiation of [3H]MK-801 binding, 0 = no activity, read-out: NR2C P (M) (potency)): 1e-10 M; NMDAR2C BINDING PROFILE −logEC50 ([9]; wild-type NMDAR2C, 0 = no activity): 10; NR2D A (%) (activity) [10, 12]: 58.7%; EC50 ([10]; potentiation of [3H]MK-801 binding, 0 = no activity, read-out: NR2D P (M) (potency) (converted)): 2e-11 M; floating time in the Porsolt test ([11]; 1 h post-dosing): significant (p<0.05) antidepressant-like effect; floating time in the Porsolt test ([11]; 24 h post-dosing): significant (p<0.05) antidepressant-like effect
C[C@@H](O)[C@@H](C(N)=O)N1C[C@]2(CCCN2C(=O)OC(C)(C)C)C1=O [Compound W, tert-butyl (R)-2-((2S,3R)-1-amino-3-hydroxy-1-oxobutan-2-yl)-1-oxo-2,5-diazaspiro[3,4]octane-5-carboxylate] | 18.33% | WT2A agonist | 53.09% | WT2B agonist | 67.5% | WT2C agonist | 66.72% | WT2D agonist | 7.08e-12 M | 4.47e-12 M | 1.06 nM | 1.45e-10 M | –

Now from value to compound, other results behind:

NMDAR2A BINDING PROFILE % 1 mM Glycine [7] | NMDAR2A BINDING PROFILE Conclusion ([7]; wild-type NMDAR2A) | NMDAR2B BINDING PROFILE % 1 mM Glycine [8] | NMDAR2B BINDING PROFILE Conclusion [8] | NMDAR2C BINDING PROFILE % 1 mM Glycine [9] | NMDAR2C BINDING PROFILE Conclusion ([9]; wild-type NMDAR2C) | NMDAR2D BINDING PROFILE % 1 mM Glycine [10] | NMDAR2D BINDING PROFILE Conclusion ([10]; wild-type NMDAR2D) | EC50 [10, 13] | EC50 [7, 14] | EC50 [8] | EC50 [9, 15] | SMILES | further results
41.04% | WT2A agonist | 59.55% | WT2B agonist | 59.73% | WT2C agonist | 93.58% | WT2D agonist | 1.32e-12 M | – | 0.147 nM | – | C[C@@H](O)[C@@H](C(N)=O)N1C[C@@]2(CCCN2C(=O)OC(C)(C)C)C1=O [Compound X, tert-butyl (S)-2-((2S,3R)-1-amino-3-hydroxy-1-oxobutan-2-yl)-1-oxo-2,5-diazaspiro[3,4]octane-5-carboxylate] | –
61.76% | WT2A agonist | 70.74% | WT2B agonist | 64.24% | WT2C agonist | 54.85% | WT2D agonist | 1e-10 M | 8.91e-12 M | – | 3.63e-12 M | CC(C)C(=O)N1CCC[C@]12CN([C@H](C(N)=O)[C@@H](C)O)C2=O [Compound Y, (2S,3R)-3-hydroxy-2-((R)-5-isobutyryl-1-oxo-2,5-diazaspiro[3,4]octan-2-yl)butanamide] | –
42.5% | WT2A agonist | 70.49% | WT2B agonist | 47.76% | WT2C agonist | 65.32% | WT2D agonist | 6.03e-12 M | 8.71e-11 M | – | 3.16e-12 M | CC(C)C(=O)N1CCC[C@@]12CN([C@H](C(N)=O)[C@@H](C)O)C2=O [Compound Z, (2S,3R)-3-hydroxy-2-((S)-5-isobutyryl-1-oxo-2,5-diazaspiro[3,4]octan-2-yl)butanamide] | –
